Reference: US20210363110A1, “4-METHYLDIHYDROPYRIMIDINONE COMPOUNDS AND PHARMACEUTICAL USE THEREOF” (Japan Tobacco Inc., priority 2018, published 2021)
pEC50: −log10 of the molar value.

Experiments:
[1] = Metabolic stability in hepatocytes, human; assay type: in vitro ADME; settings: residual ratio of unreacted substance, 1×10^6 cells/mL
Experimental: (§1) A test solution was prepared by diluting 10 mM DMSO solution of a test substance with acetonitrile by 20 times.
(§2) Human and animal cryopreserved hepatocyte (BIOIVT; Human (IVT-X008000), Rat (IVT-M00005), Monkey (IVT-M00305), Dog (IVT-M00205)) were adjusted with William's Medium E (SIGMA; W1878) to 1×10^6 cells/mL of a cell suspension, which was then added to a 96-well plate. Then, 1% of the solution of a test substance prepared was added to the reaction system, and the metabolic reaction was initiated. At a designated time, 0.1% formic acid-acetonitrile was added thereto, and the reaction was terminated.
(§3) The sample after termination of the reaction was separated by centrifugation (1400 g, 20 min.), and then the supernatant was measured by LC/MS (UPLC-SQD (waters)) to calculate a residual ratio of unreacted substances.

[2] = Metabolic stability in hepatocytes, monkey; assay type: in vitro ADME; settings: residual ratio of unreacted substance, 1×10^6 cells/mL
Experimental: as §1, §2, §3

[3] = biological target: T1, mouse RORγ (Mus musculus, UniProt P51450); experiment: Reporter gene assay for inhibitory effect against RORγ transcriptional activity (GAL4-mRORγ LBD, luciferase, CHO cells); assay type: cell-based; settings: pFA/mRORγ + pG5-Luc, 2 days incubation
T1 construct: from Ile251 to Lys516 for mouse RORγ; expressed in transfected cells; host or cells: CHO cells (transient co-transfection with pG5-Luc)
T1 sequence (P51450 251-516): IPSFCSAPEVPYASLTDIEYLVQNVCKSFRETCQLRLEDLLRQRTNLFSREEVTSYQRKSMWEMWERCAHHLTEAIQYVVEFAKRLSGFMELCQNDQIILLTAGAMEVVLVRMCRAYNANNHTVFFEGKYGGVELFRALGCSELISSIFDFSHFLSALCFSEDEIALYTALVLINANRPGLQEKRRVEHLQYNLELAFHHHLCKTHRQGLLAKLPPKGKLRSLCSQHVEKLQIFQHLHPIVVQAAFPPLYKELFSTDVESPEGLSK
Experimental: Inhibitory effect against RORγ transcriptional activity was assessed by reporter gene assay for test compounds.
cDNAs encoding human and mouse RORγ ligand binding domains (LBD) were obtained based on the sequences of human RORγ (Genbank registered number NM_005060.3) and mouse RORγ (Genbank registered number NM_011281.2) (LBD sequences: from Ser253 to Lys518 for human RORγ; from Ile251 to Lys516 for mouse RORγ).
LBD cDNAs of human and mouse RORγ were inserted into pFA-CMV vector (Agilent Technologies, Inc.), which expresses GAL4-DNA binding domain fusion protein. The resulting plasmids are hereinafter referred to as pFA/hRORγ plasmid and pFA/mRORγ plasmid, respectively. […]
Cell viability was tested by luminescence method with CellTiter-Glo (Promega). […] Ten minutes after the addition, luminescence was measured for each well with a microplate reader. The luminescence count in the cells treated with 0.2% DMSO alone was defined as 100%, and the cell viability after treatment with the test compound was calculated as a percentage (%-of-control) based on the value of 0.2% DMSO alone. When the cell viability was 70% or less, a test compound was assessed to have cytotoxicity.
RORγ transcriptional activity was detected as the intracellular luciferase activity using SteadyLite HTS Reporter Gene Assay System (Perkin Elmer). […]

| SMILES | Metabolic stability in hepatocytes at 240 min., Human [1] | Metabolic stability in hepatocytes at 240 min., Monkey [2] | pEC50 [3] |
| --- | --- | --- | --- |
| CC[C@H](C)C1=CN(C23CC(C(=O)O)(C2)C3)C(=O)N[C@@]1(C)c1ccc([C@@H]2C[C@H]2C(C)(C)C)c(Cl)c1 [Compound (2), 3-{(S)-5-((S)-sec-Butyl)-4-[4-((1R,2R)-2-tert-butyl-cyclopropyl)-3-chloro-phenyl]-4-methyl-2-oxo-3,4-dihydro-2H-pyrimidin-1-yl}bicyclo[1.1.1]pentane-1-carboxylic acid] | 94% | 85% | 7.54 |
| CC(C)C1=CN(C23CC(C(=O)O)(C2)C3)C(=O)N[C@@]1(C)c1ccc([C@@H]2C[C@H]2C(C)(C)C)c(Cl)c1 [Compound (1), 3-{(S)-4-[4-((1R,2R)-2-tert-Butyl-cyclopropyl)-3-chloro-phenyl]-5-isopropyl-4-methyl-2-oxo-3,4-dihydro-2H-pyrimidin-1-yl}bicyclo[1.1.1]pentane-1-carboxylic acid] | 94% | 83% | 7.64 |
